Experiments:
[1] = target: T1, IRAK4 kinase (Homo sapiens, UniProt Q9NWZ3); test: IRAK4 kinase activity test (KinEASE-STK S1 HTRF kit); format: biochemical; conditions: 2.5 nM kinase, 1 μM biotinylated polypeptide substrate, 7 μM ATP, 37° C. 120 min
T1 sequence (Q9NWZ3 1-460): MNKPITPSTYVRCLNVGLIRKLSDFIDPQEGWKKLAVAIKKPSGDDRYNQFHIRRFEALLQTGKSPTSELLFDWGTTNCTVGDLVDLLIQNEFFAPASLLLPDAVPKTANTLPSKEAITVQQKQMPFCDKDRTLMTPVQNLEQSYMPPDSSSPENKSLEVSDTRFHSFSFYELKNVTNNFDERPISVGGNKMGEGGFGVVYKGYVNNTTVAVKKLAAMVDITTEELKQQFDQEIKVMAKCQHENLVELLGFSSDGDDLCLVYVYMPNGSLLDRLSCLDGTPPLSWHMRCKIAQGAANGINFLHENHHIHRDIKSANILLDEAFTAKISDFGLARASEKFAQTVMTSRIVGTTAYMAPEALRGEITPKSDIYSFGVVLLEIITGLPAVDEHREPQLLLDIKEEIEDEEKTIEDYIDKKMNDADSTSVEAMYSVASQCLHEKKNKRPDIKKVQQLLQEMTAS
Procedure, shortened: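 Compound in DMSO, serially diluted to 10000–0.038 nM final, incubated with 2.5 nM kinase, 1 μM biotinylated peptide substrate and 7 μM ATP at 37° C for 120 min. Eu-anti-phospho-Ser/Thr antibody plus streptavidin-XL665 stopped the reaction (1 h RT). HTRF 665/620 nm ratio gave % inhibition versus control; IC50 from nonlinear log-concentration fit.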

[2] = target: T2, IRAK4 protein in THP-1 cells (Homo sapiens, UniProt Q9NWZ3); test: Degradation of IRAK4 in THP-1 cells (Western blot); format: cell-based; conditions: 24 hours, compound 1-3000 nM
T2 construct: endogenous in cells; host or cells: THP-1
T2 sequence (Q9NWZ3 1-460): T1 sequence (Q9NWZ3 1-460)
Procedure, shortened: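 THP-1 cells (5×10^5/well) treated 24 h with compound at 1–3000 nM final. IRAK4 in lysates quantified by Western blot, normalized to internal reference and compared with control to give degradation rate; DC50 and Dmax from nonlinear fit of log concentration.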

| Compound | IC50 [1] [nM] | DC50 [2] [nM] | Dmax [2] [%] |
| --- | --- | --- | --- |
| COc1cc2nn(C3CCN(CC4CCC5(CC4)CCN(C(=O)c4ccc(F)c(C6CCC(=O)NC6=O)c4)CC5)CC3)cc2cc1NC(=O)c1cccc(C(F)(F)F)n1 (stereo not drawn) [Example 42, N-(2-(1-((3-(3-(2,6-dioxopiperidin-3-yl)-4-fluoro-benzoyl)-3-azaspiro [5.5]undec-9-yl)methyl)piperidin-4-yl)-6-methoxy-2H-indazol-5-yl)-6-(trifluoromethyl) pyridinecarbox-amide] | 39.2 | 7.8 | 100 |
| COc1cc2nn(C3CCN(CCC4CC5(CCN(C(=O)c6ccc(Cl)c(N7CCC(=O)NC7=O)c6)CC5)C4)CC3)cc2cc1NC(=O)c1cccc(C(F)(F)F)n1 [Example 43, N-(2-(1-(2 (7-(4-chloro-3-(2,4-dioxotetrahydro-pyrimidin-1 (2H)-yl)benzoyl)-7-azospiro [3.5]non-2-yl)ethyl)piperidin-4-yl)-6-methoxy-2H-indazol-5-yl)-6-(trifluoromethyl) pyridinecarbox-amide] | 24.2 | 4.9 | 98.7 |
| COc1cc2nn(C3CCN(CC4CCC5(CC4)CCN(C(=O)c4ccc(F)c(N6CCC(=O)NC6=O)c4)CC5)CC3)cc2cc1NC(=O)c1cccc(C(F)(F)F)n1 [Example 44, N-(2-(1-((3-(3-(2,4-dioxotetrahydro-pyrimidin-1 (2H)-yl)-4-fluoro-benzoyl)-3-azaspiro[5.5]undec-9-yl)methyl)piperidin-4-yl)-6-methoxy-2H-indazol-5-yl)-6-(trifluoromethyl) pyridinecarbox-amide] | 52.4 | 2.3 | 98.5 |
| CC(C)(O)c1cc2nn(C3CCN(CC4CCC5(CC4)CCN(C(=O)c4ccc(F)c(N6CCC(=O)NC6=O)c4)CC5)CC3)cc2cc1NC(=O)c1cccc(C(F)(F)F)n1 [Example 45, N-(2-(1-((3-(3-(2,4-dioxotetrahydro-pyrimidin-1 (2H)-yl)-4-fluoro-benzoyl)-3-azaspiro[5.5]undec-9-yl)methyl)piperidin-4-yl)-6-(2-hydroxyprop-2-yl)-2H-indazol-5-yl)-6-(trifluoro-methyl) pyridinecarbox-amide] | 23.5 | 1.9 | 98.2 |
| COc1cc2nn(C3CCN(CCC4CCC5(CC4)CCN(C(=O)c4ccc(F)c(N6CCC(=O)NC6=O)c4)CC5)CC3)cc2cc1NC(=O)c1cccc(C(F)(F)F)n1 [Example 46, N-(2-(1-(2-(3-(3-(2,4-dioxotetrahydro-pyrimidin-1 (2H)-yl)-4-fluoro-benzoyl)-3-azaspiro[5.5]undec-9-yl)ethyl)piperidin-4-yl)-6-methoxy-2H-indazol-5-yl)-6-(tri-fluoromethyl) pyridinecarbox-amide] | 43.1 | 4 | 97.8 |
| COc1cc2nn(C3CCN(CCC4CCC5(CC4)CCN(C(=O)c4cccc(N6CCC(=O)NC6=O)c4)CC5)CC3)cc2cc1NC(=O)c1cccc(C(F)(F)F)n1 [Example 47, N-(2-(1-(2-(3-(3-(2,4-dioxotetrahydro-pyrimidin-1 (2H)-yl)benzoyl)-3-azaspiro[5.5]undec-9-yl)ethyl)piperidin-4-yl)-6-methoxy-2H-in-dazol-5-yl)-6-(tri-fluoromethyl) pyridinecarbox-amide] | 34.2 | 5.4 | 98.3 |
| COc1cc2nn(C3CCN(CCC4CCC5(CC4)CCN(C(=O)c4ccc(Cl)c(N6CCC(=O)NC6=O)c4)CC5)CC3)cc2cc1NC(=O)c1cccc(C(F)(F)F)n1 [Example 48, N-(2-(1-(2-(3-(4-chloro-3-(2,4-dioxotetrahydro-pyrimidin-1 (2H)-yl)benzoyl)-3-azaspiro[5.5]undec-9-yl)ethyl)piperidin-4-yl)-6-methoxy-2H-in-dazol-5-yl)-6-(tri-fluoromethyl) pyridinecarbox-amide] | 61.8 | 6 | 98 |
| COc1cc2nn([C@H]3CC[C@H](COCCC4CCN(C(=O)c5ccc(Cl)c(N6CCC(=O)NC6=O)c5)CC4)CC3)cc2cc1NC(=O)c1cccc(C(F)(F)F)n1 [Example 64, N-(2-((1r,4r)-4-((2-(1-(4-chloro-3-(2,4-dioxotetrahydro-pyrimidin-1 (2H)-yl)benzoyl)piperidin-4-yl)ethoxy)methyl)cyclohexyl)-6-methoxy-2H-indazol-5-yl)-6-(trifluoro-methyl) pyridinecarbox-amide] | 48 | 13.9 | 95.6 |

Stronger by IC50 [1], values ahead:

| IC50 [1] [nM] | DC50 [2] [nM] | Dmax [2] [%] | Compound |
| --- | --- | --- | --- |
| 21.4 | 16.1 | 95.3 | O=C1CCN(c2cc(C(=O)N3CCC4(CCC(CN5CCC(n6cc7cc(NC(=O)c8cccc(C(F)(F)F)n8)c(OC(F)F)cc7n6)CC5)CC4)CC3)ccc2Cl)C(=O)N1 [Example 66] |
| 16.7 | 10.5 | 89.4 | COc1cc2nn(C3CCN(CC4CC5(CCN(C(=O)c6ccc(Cl)c(N7CCC(=O)NC7=O)c6)CC5)C4)CC3)cc2cc1NC(=O)c1cccc(C(F)(F)F)n1 [Example 39, N-(2-(1-((7-(4-chloro-3-(2,4-dioxotetrahydro-pyrimidin-1 (2H)-yl)benzoyl)-7-azospiro [3.5]non-2-yl)methyl)piperidin-4-yl)-6-methoxy-2H-indazol-5-yl)-6-(trifluoromethyl) pyridinecarbox-amide] |
| 11.8 | 4 | 92.5 | CC(C)(O)c1cc2nn(C3CCN(CC4CC5(CCN(C(=O)c6ccc(Cl)c(N7CCC(=O)NC7=O)c6)CC5)C4)CC3)cc2cc1NC(=O)c1cccc(C(F)(F)F)n1 [Example 36, N-(2-(1-((7-(4-chloro-3-(2,4-dioxotetrahydro-pyrimidin-1 (2H)-yl)benzoyl)-7-azaspiro [3.5]non-2-yl)methyl)piperdin-4-yl)-6-(2-hydroxyprop-2-yl)-2H-indazol-5-yl)-6-(trifluoro-methyl) pyridinecarbox-amide] |
| 11.3 | 27.5 | 95.4 | COc1cc2nn([C@H]3CC[C@H](CN(C)CC4CCN(C(=O)c5ccc(Cl)c(N6CCC(=O)NC6=O)c5)CC4)CC3)cc2cc1NC(=O)c1cccc(C(F)(F)F)n1 [Example 51, N-(2-((1r,4r)-4-((((1-(4-chloro-3-(2,4-dioxotetrahydro-pyrimidin-1 (2H)-yl)benzoyl)piperdin-4-yl)methyl) (methyl)amino)methyl)cyclohexyl)-6-methoxy-2H-inda-zol-5-yl)-6-(tri-fluoromethyl) pyridinecarbox-amide] |
| 7.2 | 5.6 | 97 | COc1cc2nn([C@H]3CC[C@H](CN4CCC5(CC4)CCN(C(=O)c4ccc(Cl)c(N6CCC(=O)NC6=O)c4)CC5)CC3)cc2cc1NC(=O)c1cccc(C(F)(F)F)n1 [Example 50, N-(2-((1r,4r)-4-((9-(4-chloro-3-(2,4-dioxotetrahydropyrim-idin-1 (2H)-yl)benzoyl)-3,9-diazaspiro[5.5]undec-3-yl)methyl)cyclohexyl)-6-methoxy-2H-inda-zol-5-yl)-6-(tri-fluoromethyl) pyridinecarbox-amide] |
| 6.9 | 5.6 | 92.3 | CN(CC1CCN(C(=O)c2ccc(Cl)c(N3CCC(=O)NC3=O)c2)CC1)C[C@H]1CC[C@H](n2cc3cc(NC(=O)c4cccc(C(F)(F)F)n4)c(C(C)(C)O)cc3n2)CC1 [Example 62] |
| 6.43 | 5.1 | 93.2 | CCN(C1CCC2(CC1)CCN(C(=O)c1ccc(Cl)c(N3CCC(=O)NC3=O)c1)CC2)[C@H]1CC[C@H](n2cc3cc(NC(=O)c4cccc(C(F)(F)F)n4)c(OC)cc3n2)CC1 [Example 60] |
| 4.3 | 7.6 | 92.1 | COc1cc2nn([C@H]3CC[C@H](N4CCC5(CCN(C(=O)c6ccc(Cl)c(N7CCC(=O)NC7=O)c6)CC5)CC4)CC3)cc2cc1NC(=O)c1cccc(C(F)(F)F)n1 [Example 58, N-(2-((1r,4r)-4-(9-(4-chloro-3-(2,4-dioxotetrahydro-pyrimidin-1 (2H)-yl)benzoyl)-3,9-diazaspiro[5.5]undec-3-yl)cyclohexyl)-6-methoxy-2H-inda-zol-5-yl)-6-(triflu-oromethyl) pyridinecarbox-amide] |
| 1.6 | 13.4 | 98.3 | COc1cc2nn([C@H]3CC[C@H](CN(C)C4CCN(C5CCN(C(=O)c6ccc(Cl)c(N7CCC(=O)NC7=O)c6)CC5)CC4)CC3)cc2cc1NC(=O)c1cccc(C(F)(F)F)n1 [Example 65, N-(2-((1r,4r)-4-(((1′-(4-chloro-3-(2,4-dioxotetrahydro-pyrimidin-1 (2H)-yl)benzoyl)-[1,4′-bi-piperidin]-4-yl) (methyl)amino)methyl)cyclohexyl)-6-methoxy-2H-indazol-5-yl)-6-(trifluoro-methyl) pyridinecarbox-amide] |

Source: patent publication US20230234936A1, “COMPOUND FOR TARGETING AND DEGRADING PROTEIN, AND PREPARATION METHOD THEREFOR AND USE THEREOF” (SHANGHAI LEADINGTAC PHARMACEUTICAL CO., LTD., priority 2020, published 2023)
